Data: patent publication US9090671B2, “Macrocyclic peptides” (Scynexis, Inc., priority 2008, dated 2015)

What was measured:
[1] = test system: HCV RNA replicon ET (luc ubi neo/ET); assay: HCV RNA replicon luciferase assay in human hepatoma cell line ET; assay type: cell-based; details: Hepatitis C virus, 72 hours, read-out: EC50, effective concentration that reduced viral replication by 50% (HCV RNA replicon derived LUC activity)
Method: Representative compounds of the present invention were tested for activity against HCV using the methods adapted from those described by Kriger et al., 2001, Journal of Virology 75:4614-4624, Pietschmann et al., 2002, Journal of Virology, 76:4008-4021, and using HCV RNA constructs as described in U.S. Pat. No. 6,630,343. Compounds were examined in the human hepatoma cell line ET (lub ubi neo/ET), a HCV RNA replicon containing a stable luciferase (LUC) reporter. The HCV RNA replicon ET contains the 5′ end of HCV (with the HCV Internal Ribosome Entry Site (IRES) and the first few amino acids of the HCV core protein) which drives the production of a firefly luciferase (LUC), ubiquitin, and neomycin phosphotransferase (NeoR) fusion protein. Ubiquitin cleavage releases the LUC and NeoR proteins. The EMCV IRES element controls the translation of the HCV […] NS3-NS5. The NS3 protein cleaves the HCV polyprotein to release the mature NS3, NS4A, NS4B, NS5A and NS5B proteins that are required for HCV replication. At the 3′ end of the replicon is the authentic 3′ NTR of HCV. The activity of the LUC reporter is directly proportional to HCV replication levels and positive-control antiviral compounds produce a reproducible antiviral response using the LUC endpoint.
The compounds were dissolved in DMSO at five half-log concentrations each, ranging from either 0.03 to 3 μM or 1 to 100 μM. Subconfluent cultures of the ET line were plated out into 96 well plates dedicated for the analysis of cell numbers (cytotoxicity) or antiviral activity and the next day the compounds were added to the appropriate wells. […] Compound EC50 and EC90 values were derived from HCV RNA levels assessed as HCV RNA replicon derived LUC activity. Cytotoxicity was expressed as IC50 and IC90, the concentration of compound that inhibited cell viability by 50% and 90%, respectively. Compound IC50 and IC90 values were calculated using a colorimetric assay as an indication of cell numbers and cytotoxicity. The activity of the LUC reporter is directly proportional to HCV RNA levels in the human cell line. The HCV-replicon assay was validated in parallel experiments using interferon-alpha-2b as a positive control. Cyclosporine was also tested by way of comparison.

cyclophilin D = cyclophilin D (Homo sapiens, UniProt P30405); assay: Cyclophilin binding competitive ELISA (cyclophilin D); details: human recombinant cyclophilin, read-out: EC50, concentration required to achieve 50% inhibition, against cyclophilin D
Chain of cyclophilin D (P30405 30-207): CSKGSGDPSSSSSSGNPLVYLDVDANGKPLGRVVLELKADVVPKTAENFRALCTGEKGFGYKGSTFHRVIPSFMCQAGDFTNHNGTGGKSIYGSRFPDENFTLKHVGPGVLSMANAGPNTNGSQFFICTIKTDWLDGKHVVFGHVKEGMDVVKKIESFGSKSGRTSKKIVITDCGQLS
Method: (§1) The cyclophilin inhibition binding of compounds disclosed herein is determined using a competitive ELISA adapted from the methods described by Quesniaux et al. (Eur. J. Immunol., 1987, 17:1359-1365). Activated ester of succinyl spacers bound to D-Lys^8-cyclosporine A (D-Lys^8-Cs) are coupled to bovine serum albumin (BSA) through D-lysyl residue in position 8. BSA is dissolved in 0.1 M borate buffer, pH 9.0 (4 mg in 1.4 ml). A hundredfold molar excess of D-Lys^8-Cs dissolved in dimethyl formamide (0.6 ml) is added drop wise to the BSA under vigorous stirring.
(§2) Microtiter Plates are coated with D-Lys^8-Cs-BSA conjugate (2 μg/ml in PBS for 24 hours at 4° C.). Plates are washed with Tween®/PBS and with PBS alone. To block nonspecific binding, 2% BSA/PBS (pH 7.4) is added to the wells and allowed to incubate for 2 hours at 37° C. […] Cyclophilin is detected with anti-cyclophilin rabbit antiserum diluted in 1% BSA containing PBS and incubates overnight at 4° C. […] Bound rabbit antibodies are then detected by goat anti-rabbit IgG conjugated to alkaline phosphatase diluted in 1% BSA-PBS and allowed to incubate for 2 hours at 37° C. […] After incubation with 4-nitrophenyl phosphate (1 g/l in diethanolamine buffer, pH 9.8) for 1 to 2 hours at 37° C., the enzymatic reaction is measured spectrophotometrically at 405 nm using a spectrophotometer. […]

cyclophilin A = cyclophilin A (Homo sapiens, UniProt P62937); assay: Cyclophilin binding competitive ELISA (cyclophilin A); details: human recombinant cyclophilin, read-out: EC50, concentration required to achieve 50% inhibition, against cyclophilin A
Chain of cyclophilin A (P62937 whole entry): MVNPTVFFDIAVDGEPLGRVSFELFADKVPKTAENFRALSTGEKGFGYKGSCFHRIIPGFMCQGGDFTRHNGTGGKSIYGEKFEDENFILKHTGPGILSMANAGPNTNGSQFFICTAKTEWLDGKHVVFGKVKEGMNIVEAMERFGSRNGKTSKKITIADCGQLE
Method: as §1, §2

cyclophilin B = cyclophilin B (Homo sapiens, UniProt P23284); assay: Cyclophilin binding competitive ELISA (cyclophilin B); details: human recombinant cyclophilin, read-out: EC50, concentration required to achieve 50% inhibition, against cyclophilin B
Chain of cyclophilin B (P23284 34-216): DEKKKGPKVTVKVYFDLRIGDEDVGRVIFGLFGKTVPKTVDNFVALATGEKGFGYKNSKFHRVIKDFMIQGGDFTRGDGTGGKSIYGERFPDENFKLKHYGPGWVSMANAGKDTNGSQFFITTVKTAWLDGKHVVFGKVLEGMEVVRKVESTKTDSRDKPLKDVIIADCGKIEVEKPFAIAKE
Method: as §1, §2

Compound | EC50 [1] [nM] | further results
CC=CCC(C)C(O)C1C(=O)NC(CC)C(=O)N(C)C(SCCN(C)C)C(=O)N(C)C(CC(C)C)C(=O)N(Cc2ccccc2)C(C(C)C)C(=O)N(C)C(CC(C)C)C(=O)NC(C)C(=O)NC(C)C(=O)N(C)C(CC(C)C)C(=O)N(C)C(CC(C)C)C(=O)N(C)C(C(C)C)C(=O)N1C [Compound 1, [(R)-2-(N,N-Dimethylamino)ethylthio-Sar]^3-(N-benzyl)-Val^5-cyclosporine A] | < 1000 | 
C/C=C/C[C@@H](C)[C@@H](O)[C@H]1C(=O)N[C@@H](CC)C(=O)N(C)C(SC)C(=O)N(C)[C@@H](CC(C)C)C(=O)N(Cc2ccccc2)[C@@H](C(C)C)C(=O)N(C)[C@@H](CC(C)C)C(=O)N[C@@H](C)C(=O)N[C@H](C)C(=O)N(C)[C@@H](CC(C)C)C(=O)N(C)[C@@H](CC(C)C)C(=O)N(C)[C@@H](C(C)C)C(=O)N1C (some centres unmarked) [Compound 4, [Methylthio-Sar]^3-(N-benzyl)-Val^5-cyclosporine A] | < 1000 | EC50 (cyclophilin D): > 600 nM
CC=CCC(C)C(O)C1C(=O)NC(CC)C(=O)N(C)C(SCCC)C(=O)N(C)C(CC(C)C)C(=O)N(Cc2ccccc2)C(C(C)C)C(=O)N(C)C(CC(C)C)C(=O)NC(C)C(=O)NC(C)C(=O)N(C)C(CC(C)C)C(=O)N(C)C(CC(C)C)C(=O)N(C)C(C(C)C)C(=O)N1C (centres unmarked) [Compound 5, [n-Propylthio-Sar]^3-(N-benzyl)-Val^5-cyclosporine A] | > 1000 | EC50 (cyclophilin A): > 600 nM; EC50 (cyclophilin D): > 600 nM; EC50 (cyclophilin B): > 600 nM
CC=CCC(C)C(O)C1C(=O)NC(CC)C(=O)N(C)C(OC)C(=O)N(C)C(CC(C)C)C(=O)N(Cc2ccccc2)C(C(C)C)C(=O)N(C)C(CC(C)C)C(=O)NC(C)C(=O)NC(C)C(=O)N(C)C(CC(C)C)C(=O)N(C)C(CC(C)C)C(=O)N(C)C(C(C)C)C(=O)N1C (centres unmarked) [Compound 6, [Methoxy-Sar]^3-(N-benzyl)-Val^5-cyclosporine A] | < 1000 | 
CC=CCC(C)C(O)C1C(=O)NC(CC)C(=O)N(C)C(OC)C(=O)N(C)C(CC(C)C)C(=O)N(Cc2cccc(C(F)(F)F)c2)C(C(C)C)C(=O)N(C)C(CC(C)C)C(=O)NC(C)C(=O)NC(C)C(=O)N(C)C(CC(C)C)C(=O)N(C)C(CC(C)C)C(=O)N(C)C(C(C)C)C(=O)N1C (centres unmarked) [Compound 7, [Methoxy-Sar]^3-(3-trifluoromethylbenzyl)-Val^5-cyclosporine A] | < 1000 | 
C=CCN1C(=O)C(CC(C)C)N(C)C(=O)C(OC)N(C)C(=O)C(CC)NC(=O)C(C(O)C(C)CC=CC)N(C)C(=O)C(C(C)C)N(C)C(=O)C(CC(C)C)N(C)C(=O)C(CC(C)C)N(C)C(=O)C(C)NC(=O)C(C)NC(=O)C(CC(C)C)N(C)C(=O)C1C(C)C (centres unmarked) [Compound 8, [Methoxy-Sar]^3-(N-allyl)-Val^5-cyclosporine A] | < 1000 | 
CC=CCC(C)C(O)C1C(=O)NC(CC)C(=O)N(C)C(OC)C(=O)N(C)C(CC(C)C)C(=O)N(CC=CC)C(C(C)C)C(=O)N(C)C(CC(C)C)C(=O)NC(C)C(=O)NC(C)C(=O)N(C)C(CC(C)C)C(=O)N(C)C(CC(C)C)C(=O)N(C)C(C(C)C)C(=O)N1C (centres unmarked) [Compound 9, [Methoxy-Sar]^3-(N-but-2-enyl)-Val^5-cyclosporine A] | < 1000 | 
CC=CCC(C)C(O)C1C(=O)NC(CC)C(=O)N(C)C(OC)C(=O)N(C)C(CC(C)C)C(=O)N(CC=C(C)C)C(C(C)C)C(=O)N(C)C(CC(C)C)C(=O)NC(C)C(=O)NC(C)C(=O)N(C)C(CC(C)C)C(=O)N(C)C(CC(C)C)C(=O)N(C)C(C(C)C)C(=O)N1C (centres unmarked) [Compound 10, [Methoxy-Sar]^3-(N-3-methyl-but-2-enyl)-Val^5-cyclosporine A] | < 1000 | 
CC=CCC(C)C(O)C1C(=O)NC(CC)C(=O)N(C)C(OC)C(=O)N(C)C(CC(C)C)C(=O)N(CC=CCOCc2ccccc2)C(C(C)C)C(=O)N(C)C(CC(C)C)C(=O)NC(C)C(=O)NC(C)C(=O)N(C)C(CC(C)C)C(=O)N(C)C(CC(C)C)C(=O)N(C)C(C(C)C)C(=O)N1C (stereo not drawn) [Compound 11, [Methoxy-Sar]^3-N-(trans-4-benzyloxy-but-2-enyl)-Val^5-cyclosporine A] | < 1000 | 
CC=CCC(C)C(O)C1C(=O)NC(CC)C(=O)N(C)C(SC)C(=O)N(C)C(CC(C)C)C(=O)N(CC=CCO)C(C(C)C)C(=O)N(C)C(CC(C)C)C(=O)NC(C)C(=O)NC(C)C(=O)N(C)C(CC(C)C)C(=O)N(C)C(CC(C)C)C(=O)N(C)C(C(C)C)C(=O)N1C (stereo not drawn) [Compound 14, [Methylthio-Sar]^3-N-[trans-4-hydroxy-but-2-enyl]-Val^5-cyclosporine A] | < 1000 | 
CC=CCC(C)C(O)C1C(=O)NC(CC)C(=O)N(C)C(OC)C(=O)N(C)C(CC(C)C)C(=O)N(CC=CCO)C(C(C)C)C(=O)N(C)C(CC(C)C)C(=O)NC(C)C(=O)NC(C)C(=O)N(C)C(CC(C)C)C(=O)N(C)C(CC(C)C)C(=O)N(C)C(C(C)C)C(=O)N1C (stereo not drawn) [Compound 15, [Methoxy-Sar]^3-N-[trans-4-hydroxy-but-2-enyl]-Val^5-cyclosporine A] | < 1000 | 
CC=CCC(C)C(O)C1C(=O)NC(CC)C(=O)N(C)C(SC)C(=O)N(C)C(CC(C)C)C(=O)N(CC=CCN(C)C)C(C(C)C)C(=O)N(C)C(CC(C)C)C(=O)NC(C)C(=O)NC(C)C(=O)N(C)C(CC(C)C)C(=O)N(C)C(CC(C)C)C(=O)N(C)C(C(C)C)C(=O)N1C (stereo not drawn) [Compound 16, [Methylthio-Sar]^3-N-[trans-4-dimethylamino-but-2-enyl]-Val^5-cyclosporine A] | < 1000 | 
CC=CCC(C)C(O)C1C(=O)NC(CC)C(=O)N(C)C(OC)C(=O)N(C)C(CC(C)C)C(=O)N(CC=CCN(C)C)C(C(C)C)C(=O)N(C)C(CC(C)C)C(=O)NC(C)C(=O)NC(C)C(=O)N(C)C(CC(C)C)C(=O)N(C)C(CC(C)C)C(=O)N(C)C(C(C)C)C(=O)N1C (stereo not drawn) [Compound 17, [Methoxy-Sar]^3-N-[trans-4-dimethylamino-but-2-enyl]-Val^5-cyclosporine A] | < 1000 | 
